These results are taken from patent US9732094B2, “Arylquinazolines” (Merck Patent GmbH, priority 2013, dated 2017).

SMILES strings stand for the structures. Read-outs that look alike come from different tables or passages of the source.

The target in series [1] is T1, Kv11.1 (hERG) (Homo sapiens (Human), UniProt Q12809). The experiment in a line: Kv11.1 ion channel binding assay (Predictor hERG fluorescence polarisation). The settings on record: cells marked *: measured using hERG binding assay instead of hERG patch clamp assay; read-out: Ki [Kv1.11 hERG]. How it is done:
D) Kv11.1 Ion Channel Binding Assay
Kv11.1 (hERG=human ether a go-go related […]) is a cardiac K^+ channel which should if possible not interact with the test substances. This interaction is determined quantitatively with the aid of the Predictor™ hERG Fluorescence Polarizations (FP) Assays from Life Technologies. In the case of this assay principle, cardiomyocyte cell membranes having a certain proportion of Kv11.1 channels are isolated. A dye-labelled Kv11.1 binding partner gives a high fluorescence polarisation signal by interaction with the Kv11.1. In the case of displacement of the dye, a reduction in the fluorescence polarisation signal occurs.
The assay is carried out automatically as follows: 15 nl of the test substances (highest concentration: 10 mM, 10 concentrations: dilution factors 1:3.16, DMSO) are transferred into an empty microtitre plates having 384 wells by means of an acoustic pipetter. 3 μl of the isolated membranes are subsequently added. Membranes and test substances are incubated at 22° C. for 15 min (+/−5 min). In the next step, the dye-labelled binding partner is added, followed by incubation at 22° C. After incubation for two hours, the measurement of the fluorescence polarisation is carried out on an Envision multimode Reader. Measured raw data are standardised with the aid of Genedata Assay Analyzer. The 1050 and % effect values are calculated in Genedata Condoseo.

The target of series [2] is DNA-PK (Homo sapiens (Human), UniProt P78527). The experiment in a line: DNA-PK assay (biochemical), flashplate 33P-ATP kinase assay. A digest of the protocol:
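Reactions ran in streptavidin-coated flashplates and were halted by 200 mM EDTA, with a further 30 min at room temperature before saline washing.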

Series [3] concerns the target DNA-PK phosphorylation at serine 2056 (Homo sapiens (Human), UniProt P78527). The experiment in a line: DNA-PK phosphorylation at serine 2056 (cellular), bleomycin-treated HCT116 cells, ELISA. It is filed as cell-based. The settings on record: read-out: IC50 pDNA-PK. A digest of the protocol: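 After overnight seeding, HCT116 cells received compound with 10 μM bleomycin for 6 h; phospho-DNA-PK ELISA signals were scaled to total DNA-PKcs, DMSO serving as blank.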
Background: An ELISA detects its analyte on a solid surface through an enzyme-linked reagent.

Series [4] deals with T1, Kv11.1 (hERG). Put plainly: Kv11.1 (hERG) ion channel activity (patch clamp assay), HEK293 cells transfected with hERG gene.
[5] abbreviates: cellular DNA-PK phosphorylation at serine 2056, HCT116.
The mark [6] stands for this setting: cellular, HCT116 cells, 10 μM bleomycin, six hours.
Setting [7] is: read-out: Ki [Kv1.11 hERG], patch clamp, HEK293 transfected with hERG gene.
Setting [8] is: read-out: Ki [Kv1.11 hERG], hERG patch clamp assay (cells without asterisk).

T1 sequence (Q12809 whole entry): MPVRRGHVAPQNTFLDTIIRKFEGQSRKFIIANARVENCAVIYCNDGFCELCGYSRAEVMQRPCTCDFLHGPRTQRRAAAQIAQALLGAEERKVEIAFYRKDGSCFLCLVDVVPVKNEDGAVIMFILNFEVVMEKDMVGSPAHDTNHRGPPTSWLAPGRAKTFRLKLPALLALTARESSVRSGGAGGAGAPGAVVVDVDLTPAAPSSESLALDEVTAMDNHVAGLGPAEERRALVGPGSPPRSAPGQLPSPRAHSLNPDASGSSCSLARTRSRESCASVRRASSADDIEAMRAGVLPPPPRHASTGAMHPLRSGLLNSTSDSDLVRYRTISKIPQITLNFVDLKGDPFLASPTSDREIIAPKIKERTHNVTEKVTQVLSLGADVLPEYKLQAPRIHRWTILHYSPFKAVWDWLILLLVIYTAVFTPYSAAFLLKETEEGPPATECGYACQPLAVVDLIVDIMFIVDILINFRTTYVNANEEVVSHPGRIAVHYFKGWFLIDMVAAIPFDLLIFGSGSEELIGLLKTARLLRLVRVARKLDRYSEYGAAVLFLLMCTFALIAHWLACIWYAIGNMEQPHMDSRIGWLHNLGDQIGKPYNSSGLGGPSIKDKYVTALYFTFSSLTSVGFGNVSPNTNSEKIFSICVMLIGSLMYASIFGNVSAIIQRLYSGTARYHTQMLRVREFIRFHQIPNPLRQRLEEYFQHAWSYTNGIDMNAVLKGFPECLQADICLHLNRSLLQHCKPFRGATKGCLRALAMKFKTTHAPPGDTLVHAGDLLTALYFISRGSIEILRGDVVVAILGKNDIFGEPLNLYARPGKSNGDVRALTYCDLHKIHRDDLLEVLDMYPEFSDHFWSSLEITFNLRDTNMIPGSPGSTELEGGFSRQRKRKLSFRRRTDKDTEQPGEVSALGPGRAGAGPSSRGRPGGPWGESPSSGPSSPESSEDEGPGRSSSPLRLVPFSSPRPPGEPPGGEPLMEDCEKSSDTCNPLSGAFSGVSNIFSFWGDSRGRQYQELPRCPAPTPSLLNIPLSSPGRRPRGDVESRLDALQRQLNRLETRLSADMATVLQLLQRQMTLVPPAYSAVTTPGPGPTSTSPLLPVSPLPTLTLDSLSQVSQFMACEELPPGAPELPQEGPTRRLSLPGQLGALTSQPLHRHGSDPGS

The Ki is a measure of affinity in units of concentration, obtained from inhibition or displacement. Consider `[2H]C1([2H])OC([2H])([2H])C([2H])([2H])N(c2ccc3c(-c4cc(C(O)c5ccc(OC)nn5)c(Cl)cc4F)ncnc3c2)C1([2H])[2H]` (single isomer, unassigned) [Example 262, [2-Chloro-4-fluoro-5-[7-(2,2,3,3,5,5,6,6-octadeuteriomorpholin-4-yl)quinazolin-4-yl]phenyl]-(6-methoxypyridazin-3-yl)methanol], for which, in series [1], the Ki was over 25000 nM.
One may read the IC50 as the concentration at which inhibition is half-maximal. For `NC(=O)C(c1ccc(F)c(-c2ncnc3cc(N4CCOCC4)ccc23)c1)c1nncc2ccsc12` (stereo not drawn) [Example 284, 2-[4-Fluoro-3-(7-morpholin-4-yl-quinazolin-4-yl)-phenyl]-2-thieno-[2,3-d}pyridazin-7-yl-acetamide], the figures for the IC50 in series [2] (biochemical DNA-PK assay) and in series [3] (setting [5]) were 3 to 7 nM and 10000 to 30000 nM, respectively. In addition, in series [1], the Ki was over 25000 nM.
Taken in the same sequence, the figures for `COc1nccnc1C(O)c1ccc(F)c(-c2ncnc3cc(N4CCOCC4)cc(F)c23)c1` (stereo not drawn) [Example 267, [4-Fluoro-3-(5-fluoro-7-morpholin-4-yl-quinazolin-4-yl)-phenyl]-(3-methoxy-pytazin-2-yl)-methanol] were under 3 nM, under 500 nM and over 25000 nM.
In turn, `COC(c1ccc(F)c(-c2ncnc3cc(N4CCOCC4)ccc23)c1)c1nccnc1C` (stereo not drawn) [Example 352, 4-{2-Fluoro-5-[methoxy-(3-methyl-pyrazin-2-yl)methyl]-phenyl}-7-morpholin-4-ylquinazoline] registered a half-inhibitory concentration (IC50) in series [2] (biochemical DNA-PK assay) of over 30 nM. Moreover, in series [1], the Ki was over 25000 nM.
Take `COc1cc(C(O)c2ccc(F)c(-c3ncnc4cc(N5CCOCC5)ccc34)c2)c(Cl)nn1` (stereo not drawn) [Example 7, (3-Chloro-6-methoxy-pyridazin-4-yl)-[4-fluoro-3-(7-morpholin-4-yl-quinazolin-4-yl)phenyl]-methanol]: the IC50 in series [2] (enzymatic, 5 μM ATP) is 3 to 7 nM; in series [3] (setting [6]), under 500 nM. In series [4] (Ki [Kv1.11 hERG], patch clamp, HEK293 transfected with hERG gene), this compound came in with a Ki of 15000 to 25000 nM.
As for `COc1nccnc1C(O)c1ccc(F)c(-c2ncnc3cc(N4CCOCC4)ccc23)c1` (stereo not drawn) [Example 16, [4-Fluoro-3-(7-morpholin-4-yl-quinazolin-4-yl)phenyl]-(3-methoxy-pyrazin-2-yl)methanol], the IC50 was 7 to 30 nM in series [2] (enzymatic, 5 μM ATP) and 500 to 5000 nM in series [3] (setting [6]). The Ki in series [4] (setting [7]) was over 25000 nM.
On to `Nc1cncc(C(O)c2ccc(F)c(-c3ncnc4cc(N5CCOCC5)ccc34)c2)n1` (stereo not drawn) [Example 302, (6-Amino-pyrazin-2-yl)-[4-fluoro-3-(7-morpholin-4-yl-quinazolin-4-yl)-phenyl]methanol], for which the IC50 in series [2] (biochemical DNA-PK assay) was 3 to 7 nM; in series [3] (setting [5]), 5000 to 10000 nM. Further, the Ki in series [4] (setting [8]) is over 25000 nM.
The like results for `Cn1ncc2c(C(O)c3ccc(F)c(-c4ncnc5cc(N6CCOCC6)ccc45)c3)ncnc21` (stereo not drawn) [Example 404, [4-Fluoro-3-(7-morpholin-4-yl-quinazolin-4-yl)-phenyl]-(1-methyl-1H-pyrazolo[3,4-d}-pyrimidin-4-yl)-methanol] were, in that order, 3 to 7 nM, under 500 nM and over 25000 nM.
The like results for `OC(c1cc(-c2ncnc3cc(N4CCOCC4)ccc23)c(F)cc1Cl)c1ncnc2sccc12` (stereo not drawn) [Example 429, [2-Chloro-4-fluoro-5-(7-morpholin-4-yl-quinazolin-4-yl)-phenyl]thieno[2,3-d}-pyrimidin-4-yl-methanol] were, in that order, under 3 nM, under 500 nM and under 10000 nM.
As to `OC(c1ccc(F)c(-c2ncnc3cc(N4CCOCC4)ccc23)c1)c1ncnc2ccsc12` (stereo not drawn) [Example 438, [4-Fluoro-3-(7-morpholin-4-yl-quinazolin-4-yl)-phenyl]thieno[3,2-d}-pyrimidin-4-yl-methanol], the IC50 was under 3 nM in series [2] (biochemical DNA-PK assay) and under 500 nM in series [3] (setting [5]). Further, in series [4] (Ki [Kv1.11 hERG], hERG patch clamp assay (cells without asterisk)), the Ki was in the range of 10000 to 15000 nM.
For the compound `COc1cnc(C(O)c2ccc(F)c(-c3ncnc4cc(N5CCOCC5)ccc34)c2)nc1` (stereo not drawn) [Example 66, [4-Fluoro-3-(7-morpholin-4-yl-quinazolin-4-yl)phenyl]-(5-methoxypyrimidin-2-yl)methanol], the IC50 fell in the range of 7 to 30 nM in series [2] (enzymatic, 5 μM ATP) and 10000 to 30000 nM in series [3] (setting [6]). Further, the Ki in series [4] (setting [7]) was over 25000 nM.
